According to patent publication US20090169652A1, “Personal Care Compositions” (priority 2007, published 2009):

Assays:
[1] = test system: Xgene human skin equivalent culture model; assay: collagen expression in Xgene human skin equivalent culture model; format: cell-based
skin = assay: clinical study of skin condition; format: in vivo; details: clinical study by applicant
[2] = test system: MatTek human skin equivalent culture model; assay: collagen expression in MatTek human skin equivalent culture model; format: cell-based

## CC(=O)C1C(=O)C=C(C)OC1=O (stereo not shown) [SDA, sodium dehydroacetic acid]
[1]
  collagen expression: up-regulated collagen expression
skin
  appearance of fine lines and wrinkles: unexpected improvement in the appearance of fine lines and wrinkles
  skin condition related to reduced oil: expected improvements in skin condition related to reduced oil
[2]
  collagen expression: up-regulated collagen expression
